What was measured:
[1] = molecular target: T1, CCK receptor (brain, cerebral cortex) (Cavia porcellus, UniProt H0VZC5); test: CCK Receptor Binding (brain); design: species or system guinea pig (male Hartley); settings: guinea pig cerebral cortex; 125I-CCK-33, pH 6.5, 25° C., 2 hours
T1 construct: The cerebral cortex is dissected and used as a receptor source; from tissue; host or cells: cerebral cortex of male Hartley guinea pig, washed membrane suspension
T1 sequence (H0VZC5 1-426): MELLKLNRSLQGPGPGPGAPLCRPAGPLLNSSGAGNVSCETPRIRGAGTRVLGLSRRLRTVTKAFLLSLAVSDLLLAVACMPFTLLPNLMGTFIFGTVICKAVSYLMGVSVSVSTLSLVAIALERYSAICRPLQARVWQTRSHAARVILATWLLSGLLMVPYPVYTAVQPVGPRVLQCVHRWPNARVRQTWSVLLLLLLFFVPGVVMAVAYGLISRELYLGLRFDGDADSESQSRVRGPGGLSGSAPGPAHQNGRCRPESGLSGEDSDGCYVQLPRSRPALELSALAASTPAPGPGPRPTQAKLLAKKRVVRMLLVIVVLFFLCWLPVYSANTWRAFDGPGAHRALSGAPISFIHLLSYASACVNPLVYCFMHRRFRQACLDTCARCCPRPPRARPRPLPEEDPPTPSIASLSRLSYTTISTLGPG
Method: (§1) Screening of the novel compounds according to the present invention to determine biological activity and obtain an IC50 value for them (in order to identify significant CCK-antagonism) is accomplished using an ^125 I-CCK receptor binding assay and in vitro isolated tissue preparations. These tests involve the following:
(§2) CCK Receptor Binding (brain) Method
(§3) CCK-33 is radiolabeled and the binding is performed according to the description for the pancreas method, with modifications according to Saito et al., J. Neurochem., 37, 483-490, 1981.
(§4) Male Hartley guinea pigs (300-500 g) are sacrificed by decapitation, and the brains are removed and placed in ice-cold 50 mM Tris HCl (Trizma-7.4) [pH 7.4 at 25° C.]. The cerebral cortex is dissected and used as a receptor source and each gram of fresh guinea pig brain tissue is homogenized in 10 ml of Tris/Trizma buffer with a Brinkman polytron PT-10. The homogenates are centrifuged at 42,000 g for 15 minutes, then the resulting pellets are resuspended in 80 volumes of binding assay buffer (10 mM N-2-hydroxyethyl-piperazine-N'-2-ethanesulfonic acid (HEPES), 5 mM MgCl2, 1 mM ethylene glycol-bis(β-amino-ethyl-ether-N,N'-tetraacetic acid (EGTA), 0.4% BSA and 0.25 mg/ml bacitracin, pH 6.5).
(§5) The remainder of the inding assay method is as described for the pancreas method, except that the reaction mixtures are incubated at 25° C. for 2 hours before […].
(§6) Representative formula I compounds listed were tested as CCK-antagonists (in I-CCK-8 pancreas and ^125 I-CCK Brain assays) with results, as tabulated in the following table.

[2] = molecular target: T2, CCK receptor (pancreas) (Rattus norvegicus, UniProt P30551); test: CCK Receptor Binding (pancreas); design: species or system rat (male Sprague-Dawley); settings: for IC50: rat pancreas membranes, 125I-CCK-33, 37° C., 30 minutes, read-out: I-CCK-8 Pancreas IC50
T2 construct: The whole pancreas of a male Sprague-Dawley rat; from tissue; host or cells: whole pancreas of male Sprague-Dawley rat, washed membrane suspension
T2 sequence (P30551 1-444): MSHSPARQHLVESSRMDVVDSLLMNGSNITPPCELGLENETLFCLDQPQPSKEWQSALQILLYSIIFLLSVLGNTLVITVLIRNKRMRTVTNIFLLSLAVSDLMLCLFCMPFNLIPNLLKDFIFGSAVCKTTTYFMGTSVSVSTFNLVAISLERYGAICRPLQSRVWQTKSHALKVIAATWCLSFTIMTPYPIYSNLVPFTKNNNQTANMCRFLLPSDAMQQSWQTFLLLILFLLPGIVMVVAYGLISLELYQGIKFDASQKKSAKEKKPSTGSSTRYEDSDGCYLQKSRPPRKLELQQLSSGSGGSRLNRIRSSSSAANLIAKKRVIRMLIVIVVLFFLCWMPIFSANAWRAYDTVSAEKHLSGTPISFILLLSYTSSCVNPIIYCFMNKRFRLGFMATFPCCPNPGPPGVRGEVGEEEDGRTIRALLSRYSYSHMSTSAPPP
Source text: as §1
CCK Receptor Binding (pancreas) Method
CCK-33 is radiolabeled with ^125 I-Bolton Hunter reagent (2000 Ci/mmole), as described by Sankara et al. (J. Biol. Chem., 254, 9349-9351, 1979). Receptor binding is performed according to Innis and Snyder (Proc. Natl. Acad. Sci., 77, 6917-6921, 1980), with the minor modification of adding the additional protease inhibitors, phenylmethane sulfonyl fluoride and o-phenanthroline, which have no effect on the ^125 I-CCK receptor binding assay.
The whole pancreas of a male Sprague-Dawley rat (200-350 g), which has been sacrificed by decapitation, is dissected free of fat tissue and homogenized in 20 volumes of ice-cold 50 mM Tris HCl (pH 7.7 at 25° C.) with a Brinkman Polytron PT-10. The homogenates are centrifuged at 48,000 g for 10 minutes, then the resulting pellets are resuspended in Tris Buffer, centrifuged as above, and resuspended in 200 volumes of binding assay buffer (50 mM Tris HCl, pH 7.7 at 25° C., 5 mM dithiothreitol, 0.1 mM bacitracin, 1.2 mM phenylmethane sulfonyl fluoride and 0.5 mM o-phenanthroline).
For the binding assay, 25 μl of buffer (for total binding), or unlabeled CCK-8 sulfate sufficient to give a final concentration of 1 μM of CCK-8 (for nonspecific binding), or the compounds of the formula of the compounds according to the instant invention (for determination of antagonism to ^125 I-CCK binding) and 25 μl of ^125 I-CCK-33 (30,000-40,000 cpm), are added to 450 μl of the membrane suspensions in microfuge tubes. All assays are run in duplicate or triplicate, and the reaction mixtures are incubated at 37° C. for 30 minutes and centrifuged in a Beckman Microfuge (4 minutes) immediately after adding 1 ml of ice-cold incubation buffer. The supernatant is aspirated and discarded, and the pellets are counted with a Beckman Gamma 5000.
as §6

[3] = system: CCK receptor (brain, cerebral cortex); test: CCK Receptor Binding (brain); design: species or system guinea pig (male Hartley); settings: in words, comment on Table 1 (pancreas vs brain); especially vs formula Ia and Example 13
Method: as §1, §2, §3, §4, §5, §6

SMILES | IC50 [1] [µM] | IC50 [2] [µM] | potency compared with the formula Ia compound ([2]; in words, comment on Table 1 (pancreas and brain binding)) | selectivity compared with the other compounds [3]
O=C1Nc2ccccc2-c2nc3ccccc3c(=O)n2[C@H]1Cc1c[nH]c2ccccc12 [*, 7β-[(1H-indol-3-yl)methyl]quinazoline(3,2-D)(1,4)benzodiazepin-6,9(5H,7H)-dione, reference compound] | 110 | 76 |  | 
O=C1Nc2ccccc2-c2nc3ccccc3c(=O)n2[C@@H]1Cc1c[nH]c2ccccc12 [Example 13, 7α-[(1H-indol-3-yl)methyl]quinazolino(3,2-D)-1,4-benzodiazepin-6,9(5H,7H)-dione hydrate] | 100 | 67 | improved | 
C[C@H]1C(=O)Nc2ccccc2-c2nc3ccccc3c(=O)n21 [Example 14, 7β-methylquinazolino(3,2-D)(1,4)benzodiazepin-6,9-(5H,7H)-dione] | 100 | 100 |  | 
O=C1Cn2c(nc3ccccc3c2=O)-c2ccccc2N1 [Example 15, quinazolino(3,2-D)(1,4)benzodiazepin-6,9(5H,7H)-dione] | 100 | 100 |  | 
O=C1Nc2ccccc2-c2nc3ccccc3c(=O)n2[C@H]1Cc1ccc(O)cc1 [Example 16, 7β-[(4-hydroxyphenyl)methyl]quinazolino(3,2-D)(1,4)-benzodiazepin-6,9(5H,7H)-dione hydrate] | 100 | 100 |  | 
CN1C(=O)[C@H](Cc2c[nH]c3ccccc23)n2c(nc3ccccc3c2=O)-c2ccccc21 [Example 19, 5-methyl-7β-[(1H-indol-3-yl)methyl]quinazolino(3,2-D)(1,4)benzodiazepin-6,9(5H,7H)-dione hydrate] | 51 | 104 |  | substantial change in selectivity

— patent publication US4554272A, “Substituted quinazolino-1,4-benzodiazepin-6,9-diones and their preparation” (Merck & Co., Inc., priority 1985, dated 1985)
